From publication PMC9653409, “Generative deep learning enables the discovery of a potent and selective RIPK1 inhibitor” (Nature Communications, 2022)
Where two headings read alike, the source gives them in different places.

How the values were obtained:
Assay in all cases: Kinase inhibitory activity profiling of RI-962@10 µM (406 kinases, Eurofins)
Type in all cases: biochemical
[1] = biological target: panel of human kinases (kinase named in endpoint) (Homo sapiens, UniProt O14757); details: 10 µM; read-out: Activity (%), CHK1(h)
Method in brief: (§1)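 Radiometric filter-binding kinase assays: enzyme preincubated 15 min with compound in 8 mM MOPS pH 7.0, 0.2 mM EDTA, 250 μM peptide substrate, 10 mM magnesium acetate, 10 μM [γ-33P]-ATP. Reaction started with Mg/ATP, run 40 min at room temperature, stopped with phosphoric acid; 33P incorporation read by scintillation counting. Other kinases by similar protocols.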

[2] = biological target: panel of human kinases (kinase named in endpoint) (Homo sapiens, UniProt P10721, D816V); details: 10 µM; read-out: Activity (%), cKit(D816V)(h)
Method in brief: as §1

[3] = biological target: panel of human kinases (kinase named in endpoint) (Homo sapiens, UniProt O96017, I157T); details: 10 µM; read-out: Activity (%), CHK2(I157T)(h)
Method in brief: as §1

[4] = biological target: panel of human kinases (kinase named in endpoint) (Homo sapiens, UniProt P36896); details: 10 µM; read-out: Activity (%), ALK4(h)
Method in brief: as §1

[5] = biological target: panel of human kinases (kinase named in endpoint) (Homo sapiens, UniProt P29317); details: 10 µM; read-out: Activity (%), EphA2(h)
Method in brief: as §1

[6] = biological target: panel of human kinases (kinase named in endpoint) (Homo sapiens, UniProt Q14012); details: 10 µM; read-out: Activity (%), CaMKI(h)
Method in brief: as §1

[7] = biological target: panel of human kinases (kinase named in endpoint) (Homo sapiens, UniProt Q8WU08); details: 10 µM; read-out: Activity (%), STK32A(h)
Method in brief: as §1

[8] = biological target: panel of human kinases (kinase named in endpoint) (Homo sapiens, UniProt Q16644); details: 10 µM; read-out: Activity (%), MAPKAP-K3(h)
Method in brief: as §1

[9] = biological target: panel of human kinases (kinase named in endpoint) (Homo sapiens, UniProt P42336, E545K); details: 10 µM; read-out: Activity (%), PI3(p110a(E545K)/p85a)
Method in brief: as §1

[10] = biological target: panel of human kinases (kinase named in endpoint) (Homo sapiens, UniProt P09769); details: 10 µM; read-out: Activity (%), Fgr(h)
Method in brief: as §1

[11] = biological target: panel of human kinases (kinase named in endpoint) (Homo sapiens, UniProt Q99986); details: 10 µM; read-out: Activity (%), VRK1(h)
Method in brief: as §1

[12] = biological target: panel of human kinases (kinase named in endpoint) (Homo sapiens, UniProt Q15139); details: 10 µM; read-out: Activity (%), PKCμ(h)
Method in brief: as §1

[13] = biological target: panel of human kinases (kinase named in endpoint) (Homo sapiens, UniProt Q13043); details: 10 µM; read-out: Activity (%), MST1(h)
Method in brief: as §1

[14] = biological target: panel of human kinases (kinase named in endpoint) (Homo sapiens, UniProt P24941); details: 10 µM
Method in brief: as §1

[15] = biological target: panel of human kinases (kinase named in endpoint) (Homo sapiens, UniProt P00519, M351T); details: 10 µM; read-out: Activity (%), Abl (M351T)(h)
Method in brief: as §1

[16] = biological target: panel of human kinases (kinase named in endpoint) (Homo sapiens, UniProt Q92918); details: 10 µM; read-out: Activity (%), HPK1(h)
Method in brief: as §1

[17] = biological target: panel of human kinases (kinase named in endpoint) (Homo sapiens, UniProt P22455); details: 10 µM; read-out: Activity (%), FGFR4(h)
Method in brief: as §1

[18] = biological target: panel of human kinases (kinase named in endpoint) (Homo sapiens, UniProt Q13153); details: 10 µM; read-out: Activity (%), PAK1(h)
Method in brief: as §1

[19] = biological target: panel of human kinases (kinase named in endpoint) (Homo sapiens, UniProt P50613); details: 10 µM; read-out: Activity (%), CDK7/cyclinH/MAT1(h)
Method in brief: as §1

[20] = biological target: panel of human kinases (kinase named in endpoint) (Homo sapiens, UniProt P04049); details: 10 µM; read-out: Activity (%), c-RAF(h)
Method in brief: as §1

[21] = biological target: panel of human kinases (kinase named in endpoint) (Homo sapiens, UniProt Q99683); details: 10 µM; read-out: Activity (%), ASK1(h)
Method in brief: as §1

[22] = biological target: panel of human kinases (kinase named in endpoint) (Homo sapiens, UniProt Q02763); details: 10 µM; read-out: Activity (%), Tie2 (h)
Method in brief: as §1

[23] = biological target: panel of human kinases (kinase named in endpoint) (Homo sapiens, UniProt Q9Y2K2); details: 10 µM; read-out: Activity (%), SIK3(h)
Method in brief: as §1

[24] = biological target: panel of human kinases (kinase named in endpoint) (Homo sapiens, UniProt Q7L7X3); details: 10 µM; read-out: Activity (%), TAO1(h)
Method in brief: as §1

[25] = biological target: panel of human kinases (kinase named in endpoint) (Homo sapiens, UniProt P16591); details: 10 µM; read-out: Activity (%), Fer(h)
Method in brief: as §1

Chain of panel of human kinases (kinase named in endpoint) (Homo sapiens, UniProt O96017, I157T) (O96017 whole entry I157T): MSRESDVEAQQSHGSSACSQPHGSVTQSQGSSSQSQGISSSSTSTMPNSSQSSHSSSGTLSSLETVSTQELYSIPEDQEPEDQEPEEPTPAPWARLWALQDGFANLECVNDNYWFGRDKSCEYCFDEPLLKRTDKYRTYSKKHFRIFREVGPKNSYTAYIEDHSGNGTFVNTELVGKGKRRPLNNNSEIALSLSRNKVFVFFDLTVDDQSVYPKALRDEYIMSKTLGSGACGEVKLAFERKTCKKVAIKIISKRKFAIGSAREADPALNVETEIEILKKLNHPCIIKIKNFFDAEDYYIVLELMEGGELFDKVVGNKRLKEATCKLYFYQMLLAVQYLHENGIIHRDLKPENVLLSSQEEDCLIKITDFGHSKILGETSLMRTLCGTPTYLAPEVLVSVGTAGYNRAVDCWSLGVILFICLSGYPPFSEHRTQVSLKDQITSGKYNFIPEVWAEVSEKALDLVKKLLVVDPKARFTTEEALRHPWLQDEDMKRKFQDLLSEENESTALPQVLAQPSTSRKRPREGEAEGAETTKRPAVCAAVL
Chain of panel of human kinases (kinase named in endpoint) (Homo sapiens, UniProt Q92918) (Q92918 whole entry): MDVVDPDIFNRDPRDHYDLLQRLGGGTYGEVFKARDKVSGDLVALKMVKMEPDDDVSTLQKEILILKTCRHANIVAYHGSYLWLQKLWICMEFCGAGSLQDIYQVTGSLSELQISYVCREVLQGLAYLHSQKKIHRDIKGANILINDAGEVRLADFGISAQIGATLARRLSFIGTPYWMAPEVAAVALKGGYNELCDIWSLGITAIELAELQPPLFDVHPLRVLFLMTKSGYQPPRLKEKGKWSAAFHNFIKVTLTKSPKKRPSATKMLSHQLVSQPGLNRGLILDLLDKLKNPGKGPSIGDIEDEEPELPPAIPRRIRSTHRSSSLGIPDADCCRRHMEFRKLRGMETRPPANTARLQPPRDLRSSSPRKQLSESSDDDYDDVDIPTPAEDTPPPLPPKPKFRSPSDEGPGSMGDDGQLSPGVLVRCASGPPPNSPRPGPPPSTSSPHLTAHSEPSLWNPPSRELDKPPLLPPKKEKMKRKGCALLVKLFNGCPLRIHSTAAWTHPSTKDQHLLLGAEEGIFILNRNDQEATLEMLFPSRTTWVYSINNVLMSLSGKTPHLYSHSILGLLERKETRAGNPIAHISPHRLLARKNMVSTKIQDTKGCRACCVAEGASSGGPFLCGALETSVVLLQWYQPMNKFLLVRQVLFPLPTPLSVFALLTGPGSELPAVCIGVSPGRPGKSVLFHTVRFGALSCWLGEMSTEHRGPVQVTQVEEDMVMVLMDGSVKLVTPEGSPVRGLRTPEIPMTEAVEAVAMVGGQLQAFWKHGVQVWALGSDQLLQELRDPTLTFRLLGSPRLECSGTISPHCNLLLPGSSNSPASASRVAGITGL
Chain of panel of human kinases (kinase named in endpoint) (Homo sapiens, UniProt Q16644) (Q16644 whole entry): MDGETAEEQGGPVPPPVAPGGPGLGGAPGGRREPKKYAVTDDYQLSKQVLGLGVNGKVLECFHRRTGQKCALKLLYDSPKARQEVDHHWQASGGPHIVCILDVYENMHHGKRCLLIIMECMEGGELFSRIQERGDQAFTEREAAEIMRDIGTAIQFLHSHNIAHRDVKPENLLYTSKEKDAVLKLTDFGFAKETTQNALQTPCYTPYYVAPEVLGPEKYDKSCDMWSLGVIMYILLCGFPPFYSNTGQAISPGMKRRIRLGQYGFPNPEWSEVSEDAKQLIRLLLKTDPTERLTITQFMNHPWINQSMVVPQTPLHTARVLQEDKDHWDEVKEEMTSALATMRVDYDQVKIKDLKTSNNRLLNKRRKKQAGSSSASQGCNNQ
Chain of panel of human kinases (kinase named in endpoint) (Homo sapiens, UniProt Q99986) (Q99986 whole entry): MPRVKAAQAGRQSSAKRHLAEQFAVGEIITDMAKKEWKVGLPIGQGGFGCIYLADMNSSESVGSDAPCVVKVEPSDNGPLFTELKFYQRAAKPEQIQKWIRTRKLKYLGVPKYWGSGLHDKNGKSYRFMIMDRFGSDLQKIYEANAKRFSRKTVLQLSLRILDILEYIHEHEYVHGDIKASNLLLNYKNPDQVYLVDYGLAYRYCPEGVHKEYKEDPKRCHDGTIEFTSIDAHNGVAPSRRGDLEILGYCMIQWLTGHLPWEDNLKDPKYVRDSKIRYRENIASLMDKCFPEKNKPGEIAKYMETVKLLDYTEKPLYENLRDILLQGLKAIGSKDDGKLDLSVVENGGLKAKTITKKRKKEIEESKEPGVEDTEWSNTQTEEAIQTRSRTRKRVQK
Chain of panel of human kinases (kinase named in endpoint) (Homo sapiens, UniProt P50613) (P50613 whole entry): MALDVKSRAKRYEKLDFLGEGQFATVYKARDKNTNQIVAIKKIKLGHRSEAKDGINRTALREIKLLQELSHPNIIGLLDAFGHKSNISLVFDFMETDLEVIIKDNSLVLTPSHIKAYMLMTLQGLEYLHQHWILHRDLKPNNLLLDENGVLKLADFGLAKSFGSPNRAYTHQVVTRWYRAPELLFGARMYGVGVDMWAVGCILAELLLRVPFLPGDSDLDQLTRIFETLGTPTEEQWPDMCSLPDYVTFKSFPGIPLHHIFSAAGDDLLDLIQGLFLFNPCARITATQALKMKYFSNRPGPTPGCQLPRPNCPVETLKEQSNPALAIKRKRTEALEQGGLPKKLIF
Chain of panel of human kinases (kinase named in endpoint) (Homo sapiens, UniProt P22455) (P22455 22-802): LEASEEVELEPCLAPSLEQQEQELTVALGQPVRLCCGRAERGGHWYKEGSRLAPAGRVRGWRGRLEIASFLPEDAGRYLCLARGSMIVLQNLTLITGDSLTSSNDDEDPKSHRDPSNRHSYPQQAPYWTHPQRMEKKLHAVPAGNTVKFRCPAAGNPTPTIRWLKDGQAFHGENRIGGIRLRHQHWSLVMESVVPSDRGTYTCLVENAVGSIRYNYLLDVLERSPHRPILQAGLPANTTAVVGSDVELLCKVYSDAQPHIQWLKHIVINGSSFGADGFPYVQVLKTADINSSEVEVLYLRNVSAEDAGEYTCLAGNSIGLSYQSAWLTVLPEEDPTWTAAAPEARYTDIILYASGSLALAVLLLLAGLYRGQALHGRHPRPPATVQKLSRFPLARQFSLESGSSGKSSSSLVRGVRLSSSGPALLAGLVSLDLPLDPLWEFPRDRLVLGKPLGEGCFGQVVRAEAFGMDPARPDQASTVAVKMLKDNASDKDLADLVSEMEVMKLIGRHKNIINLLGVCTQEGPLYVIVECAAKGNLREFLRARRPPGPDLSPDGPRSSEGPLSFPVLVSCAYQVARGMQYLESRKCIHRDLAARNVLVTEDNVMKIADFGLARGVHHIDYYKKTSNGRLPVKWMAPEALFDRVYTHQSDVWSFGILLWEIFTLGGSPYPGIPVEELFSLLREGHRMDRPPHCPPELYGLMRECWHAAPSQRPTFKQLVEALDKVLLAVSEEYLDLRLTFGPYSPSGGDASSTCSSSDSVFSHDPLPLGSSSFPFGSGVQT
Chain of panel of human kinases (kinase named in endpoint) (Homo sapiens, UniProt P42336, E545K) (P42336 whole entry E545K): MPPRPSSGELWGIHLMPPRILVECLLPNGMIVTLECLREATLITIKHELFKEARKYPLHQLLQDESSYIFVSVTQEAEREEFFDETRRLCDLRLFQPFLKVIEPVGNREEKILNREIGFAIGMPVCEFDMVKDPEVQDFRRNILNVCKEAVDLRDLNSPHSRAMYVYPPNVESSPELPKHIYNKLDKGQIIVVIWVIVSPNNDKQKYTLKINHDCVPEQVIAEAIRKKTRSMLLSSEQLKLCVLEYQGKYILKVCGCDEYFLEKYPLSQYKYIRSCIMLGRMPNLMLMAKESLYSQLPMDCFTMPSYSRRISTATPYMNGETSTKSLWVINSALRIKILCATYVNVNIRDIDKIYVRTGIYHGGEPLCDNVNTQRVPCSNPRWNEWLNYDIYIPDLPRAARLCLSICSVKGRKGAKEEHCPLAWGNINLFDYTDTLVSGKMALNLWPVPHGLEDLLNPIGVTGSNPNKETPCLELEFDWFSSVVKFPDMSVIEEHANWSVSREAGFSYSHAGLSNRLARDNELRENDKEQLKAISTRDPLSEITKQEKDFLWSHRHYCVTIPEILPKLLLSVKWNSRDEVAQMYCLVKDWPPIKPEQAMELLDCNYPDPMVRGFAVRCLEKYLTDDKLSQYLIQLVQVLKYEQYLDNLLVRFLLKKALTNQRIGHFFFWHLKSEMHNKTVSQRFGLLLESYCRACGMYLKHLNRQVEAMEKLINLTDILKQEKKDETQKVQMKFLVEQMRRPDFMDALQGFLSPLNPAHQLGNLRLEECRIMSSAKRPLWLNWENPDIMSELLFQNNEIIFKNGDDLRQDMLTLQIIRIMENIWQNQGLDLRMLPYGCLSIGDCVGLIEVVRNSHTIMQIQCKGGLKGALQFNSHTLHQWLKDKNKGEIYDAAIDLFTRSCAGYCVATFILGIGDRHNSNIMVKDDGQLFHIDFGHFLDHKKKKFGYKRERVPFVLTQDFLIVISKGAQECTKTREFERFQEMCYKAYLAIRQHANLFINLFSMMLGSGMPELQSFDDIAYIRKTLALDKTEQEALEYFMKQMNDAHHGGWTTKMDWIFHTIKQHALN
Chain of panel of human kinases (kinase named in endpoint) (Homo sapiens, UniProt P36896) (P36896 24-505): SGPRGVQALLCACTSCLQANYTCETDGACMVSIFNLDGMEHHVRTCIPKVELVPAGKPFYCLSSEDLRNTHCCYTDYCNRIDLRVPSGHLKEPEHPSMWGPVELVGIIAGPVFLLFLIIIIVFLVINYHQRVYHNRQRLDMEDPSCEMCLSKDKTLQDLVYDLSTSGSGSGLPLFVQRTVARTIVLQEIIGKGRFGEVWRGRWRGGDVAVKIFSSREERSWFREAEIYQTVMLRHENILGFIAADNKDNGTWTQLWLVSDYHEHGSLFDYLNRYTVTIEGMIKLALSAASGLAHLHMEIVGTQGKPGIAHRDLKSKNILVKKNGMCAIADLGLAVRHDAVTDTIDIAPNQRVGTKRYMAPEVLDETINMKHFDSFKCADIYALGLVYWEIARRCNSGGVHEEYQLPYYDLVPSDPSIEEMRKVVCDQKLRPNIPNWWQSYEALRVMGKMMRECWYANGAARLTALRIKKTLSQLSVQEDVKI

Q: What does the source list for `CC(C)C(=O)Nc1nc2cc(-c3ccc4c(c3)c(C(=O)NC(C)c3ccccc3)cn4C)ccn2n1` (centres unmarked) [RI-962]?
A: activity at 10 µM [1]: 124%; activity at 10 µM [2]: 97%; activity at 10 µM [3]: 92%; activity at 10 µM [4]: 90%; activity at 10 µM [5]: 96%; activity at 10 µM [6]: 92%; activity at 10 µM [7]: 113%; activity at 10 µM [8]: 98%; activity at 10 µM [9]: 96%; activity at 10 µM [10]: 96%; activity at 10 µM [11]: 86%; activity at 10 µM [12]: 87%; activity at 10 µM [13]: 95%; activity at 10 µM ([14]; read-out: Activity (%), CDK2/cyclinA(h)): 122%; activity at 10 µM ([14]; read-out: Activity (%), CDK2/cyclinE(h)): 92%; activity at 10 µM [15]: 121%; activity at 10 µM [16]: 92%; activity at 10 µM [17]: 85%; activity at 10 µM [18]: 105%; activity at 10 µM [19]: 93%; activity at 10 µM [20]: 114%; activity at 10 µM [21]: 97%; activity at 10 µM [22]: 90%; activity at 10 µM [23]: 100%; activity at 10 µM [24]: 81%; activity at 10 µM [25]: 107%
